Experiments:
[1] = biological target: T1, His-TAT-HA-tagged A-epitope peptide [CARP-1 (951-980)] (Homo sapiens, UniProt Q8IX12); assay: In vitro binding of SMIs, immobilized A-epitope peptide pre-incubated with CFM; conditions: 100 μM, 30 min at RT; WB with anti-Gst
T1 construct: wild-type or scrambled His-TAT-HA-CARP-1 (951-980) peptides; made in house; host or cells: E. coli BL-21 (DE3)
T1 sequence (Q8IX12 951-980 limits assumed): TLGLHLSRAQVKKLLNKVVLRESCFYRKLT
Procedure: The CFM-4 and 5 were separately dissolved in DMSO to obtain a stock of 20-50 mM. For in vitro binding experiments we utilized affinity-purified Gst-APC-2 (685-754) and His-TAT-HA-tagged A-epitope (WT) peptide. Ten nanogram of the His-TAT-HA-tagged A-epitope (WT) peptide was first allowed to bind with Ni-NTA beads (ProBond, InVitrogen), and then the reaction was incubated with DMSO (control), 100 μM CFM-4, or 100 μM CFM-5 for 30 min at RT. The reactions were then subjected to three washes with the binding buffer, followed by incubation with 10 ng of affinity-purified Gst-APC-2 (685-754) peptide for 30 min at RT. The reactions were washed again for three times with PBS, eluted and analyzed on a SDS-PAGE followed by western blotting (WB) with anti-Gst antibodies. A similar strategy was performed by immobilizing the Gst-APC-2 (685-754) peptide with Gst-beads. The beads were washed, incubated with DMSO or the CFMs, and the reactions washed again. The reactions were then allowed to incubate with affinity purified A-epitope peptide, and the complexes analyzed by SDS-PAGE followed by WB with anti HA-tag antibodies.

[2] = test system: CARP-1, cyclin B1, Cdc20, Cdh1, APC-2, CDKIs, caspases, p38, Bcl2 family proteins; assay: Western blot of protein levels in treated cells; type: cell-based
Procedure: Logarithmically growing cells were either untreated or treated with different agents for various time periods. The cells were lysed to prepare protein extracts. IP was carried out by incubating approximately 1 mg of the protein lysate with appropriate antibodies, and the immunoprecipitates or cell lysates were then electrophoresed on 9-12% SDS-polyacrylamide gels, and transferred to nitrocellulose membranes. The membranes were subsequently probed with various antibodies to determine expression/presence of the corresponding proteins. The cell growth inhibition was assessed by using MTT assay. Briefly, MTT (3-[4,5-Dimethylthiazol-2-yl]-2,5diphenyltetrazolium bromide) was dissolved in sterile 1×PBS to prepare a stock solution of 5 mg/ml. The solution was subsequently filtered through 0.2 μm filter and stored at 2-8° C. 4−5×10^2 cells were seeded in 96-well plates. After 72 h incubation with or without different agents, MTT stock solution was added to each culture being assayed to equal one tenth the original culture volume, followed by incubation of cells at 37° C. for another 2 h. At the end of the incubation, the media was removed and cells were treated with 100-200 μl of DMSO to solubilize the dye. The assessment of the live cells was derived by measuring the absorbance of the converted dye at wavelength of 570 nm.

With `O=C1N(Cc2ccccc2Cl)c2ccccc2C12NN=C(c1ccccc1)S2` (centres unmarked) [CFM-4, 1-(2-chlorobenzyl)-5′-phenyl-3′H-spiro[indoline-3,2′-[1,3,4]thiadiazol]-2-one] the “binding of immobilized A-epitope peptide with Gst-APC-2 (685-754) after pre-incubation with compound” value [1] was “abrogated its binding”, the “APC-2 levels (WB)” value [2] was “unaffected” and the “Bax expression (WB)” value [2] was “failed to stimulate Bax expression”. The “Cdc20 levels (WB)” value [2] was “significantly reduced”, the “Cdh1 levels (WB)” value [2] was “modest decline” and the “cleavage of caspases (WB)” value [2] was “cleavage of caspases 9 and 8”. For the same compound, the “tBid levels (WB)” value [2] was “modest increase in tBid levels”, the “CARP-1 levels (WB)” value ([2]; 50 nM velcade 6 h or 24 h, 20 μM CFM-4 24 h) was “robust increase in CARP-1 levels” and the “p38 activation (WB)” value ([2]; 20 μM, from 6 h, sustained through 24 h) was “activation (phosphorylation) of p38”. The “levels of p21WAF1/CIP1 and p27KIP1 CDKIs (WB)” value ([2]; 0.5-1.0 h exposure) was “elevated”, the “levels of p21WAF1/CIP1 and p27KIP1 CDKIs (WB)” value ([2]; 3 h and beyond) was “decline” and the “cyclin B1 levels (WB)” value ([2]; 6 h and subsequent treatment periods) was “depleted cyclin B1”. For the same compound, the “levels of BimEL (WB)” value ([2]; 12 h or 24 h treatments) was “declined significantly”, the “levels of Bims isoform (WB)” value ([2]; 12 h or 24 h treatments) was “concomitant increase” and the “levels of E2 ubiquitin ligase UbCH10 (WB)” value ([2]; alone or in combination with caspase inhibitors) was “not affected”. The “cleavage of PARP1 (WB)” value ([2]; cells transfected with scrambled SiRNAs) was “robust cleavage of PARP1”, the “levels of Bcl2, BclXL, Noxa, and Puma proteins (WB)” value ([2]; different cells) was “failed to modulate levels” and the “CARP-1 and cyclin B1 levels (WB)” value ([2]; drug (ADR or TAM)-resistant MCF-7 cells) was “elevated CARP-1 and reduced cyclin B1 levels”. For the same compound, the “cyclin B1 levels (WB)” value ([2]; prostate and pancreatic cancer cells) was “induced cyclin B1 loss” and the “CARP-1 levels (WB)” value ([2]; time course, 6 h and subsequent treatment periods) was “stimulated CARP-1 levels”.

From US9598441B2, “Therapeutic compounds and methods” (Wayne State University, priority 2011, dated 2017)
